Results published in ChEMBL document CHEMBL4406802, “Human disorders associated with inflammation and the evolving role of natural products to overcome” (Eur J Med Chem, 2019).
In brackets after ≈: the same amount, converted by molar mass.

target: T1, Prostaglandin G/H synthase 2 (Ovis aries, UniProt P79208); assay: Inhibition of recombinant ovine COX2 using arachidonic acid as substrate preincubated for 15 mins followed by arachidonic acid addition measured after 2 mins by ELISA; conditions: not given
T1 sequence (P79208 whole entry): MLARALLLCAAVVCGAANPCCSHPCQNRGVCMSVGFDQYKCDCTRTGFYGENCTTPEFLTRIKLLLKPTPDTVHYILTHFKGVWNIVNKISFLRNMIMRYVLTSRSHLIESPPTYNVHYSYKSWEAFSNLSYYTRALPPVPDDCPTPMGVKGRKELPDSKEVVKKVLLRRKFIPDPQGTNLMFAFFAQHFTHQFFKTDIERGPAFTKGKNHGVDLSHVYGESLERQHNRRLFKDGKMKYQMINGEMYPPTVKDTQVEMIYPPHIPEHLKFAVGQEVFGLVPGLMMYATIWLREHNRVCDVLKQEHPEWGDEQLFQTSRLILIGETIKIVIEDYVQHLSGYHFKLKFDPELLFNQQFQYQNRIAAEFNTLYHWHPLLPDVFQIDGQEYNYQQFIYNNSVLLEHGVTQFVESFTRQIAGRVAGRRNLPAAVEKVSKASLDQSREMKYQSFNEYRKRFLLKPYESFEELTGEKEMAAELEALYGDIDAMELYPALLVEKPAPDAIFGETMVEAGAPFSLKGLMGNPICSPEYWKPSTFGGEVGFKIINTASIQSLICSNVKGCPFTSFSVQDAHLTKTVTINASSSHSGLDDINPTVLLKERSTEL

Row | Structure (SMILES) | IC50 [µM]
1 | C[C@@H]1O[C@@H](O[C@@H]2[C@@H](O)[C@H](OCCc3ccc(O)c(O)c3)O[C@H](CO)[C@H]2OC(=O)/C=C/c2ccc(O)c(O)c2)[C@H](O)[C@H](O)[C@H]1O [ACETOSIDE] | 11.3
2 | CC(=O)OC[C@H]1O[C@@H](OCCc2ccc(O)c(O)c2)[C@H](O[C@@H]2OC[C@](O)(CO)[C@H]2O)[C@@H](O[C@@H]2O[C@@H](C)[C@H](O)[C@@H](O)[C@H]2O)[C@@H]1OC(=O)/C=C/c1ccc(O)c(O)c1 | 16
3 | O=C(OC[C@@]1(O)CO[C@@H](O[C@H]2[C@H](Oc3ccc(O)c(O)c3)O[C@H](CO)[C@@H](O)[C@@H]2O)[C@@H]1O)c1ccc(O)c(O)c1 | 24.7
4 | CC(=O)OC[C@H]1O[C@@H](OCCc2ccc(O)c(O)c2)[C@H](O)[C@@H](O[C@@H]2O[C@@H](C)[C@H](O)[C@@H](O)[C@H]2O)[C@@H]1OC(=O)/C=C/c1ccc(O)c(O)c1 | 9.4
5 | COc1cc(O[C@@H]2O[C@H](CO)[C@@H](O)[C@H](O)[C@H]2O[C@@H]2OC[C@](O)(COC(=O)c3ccc(O)c(O)c3)[C@H]2O)ccc1O | 29.2
6 | CC(=O)OC[C@H]1O[C@@H](OCCc2ccc(O)c(O)c2)[C@H](O)[C@@H](O[C@@H]2O[C@@H](C)[C@H](O)[C@@H](O[C@@H]3OC[C@](O)(CO)[C@H]3O)[C@H]2O)[C@@H]1OC(=O)/C=C/c1ccc(O)c(O)c1 | 19.6
7 | C[C@@H]1O[C@@H](O[C@@H]2[C@@H](O)[C@H](OCCc3ccc(O)c(O)c3)O[C@H](CO)[C@H]2OC(=O)/C=C/c2ccc(O)c(O)c2)[C@H](O)[C@H](O[C@@H]2OC[C@](O)(CO)[C@H]2O)[C@H]1O | 21.5
8 | C[C@@H]1O[C@@H](O[C@@H]2[C@@H](O)[C@H](OCCc3ccc(O)cc3)O[C@H](CO)[C@H]2OC(=O)/C=C/c2ccc(O)c(O)c2)[C@H](O)[C@H](O[C@@H]2OC[C@](O)(CO)[C@H]2O)[C@H]1O | 36
9 | C[C@@H]1O[C@@H](O[C@@H]2[C@@H](O[C@@H]3OC[C@](O)(CO)[C@H]3O)[C@H](OCCc3ccc(O)c(O)c3)O[C@H](CO)[C@H]2OC(=O)/C=C/c2ccc(O)c(O)c2)[C@H](O)[C@H](O)[C@H]1O | 18.2

tested on: RAW264.7; assay: Antiinflammatory activity in mouse RAW264.7 cells assessed as inhibition of LPS-induced nitric oxide production; assay type: functional, cell-based; conditions: not given

Row | Structure (SMILES) | IC50
10 | CC(C)=CCc1c(-c2ccc(O)cc2O)oc2cc(O)cc(O)c2c1=O [ALBANIN A] | 9.2 µg/mL
11 | CC[C@H](CC[C@@H](C)[C@H]1CC[C@H]2[C@@H]3CCC4=CC(=O)CC[C@]4(C)[C@H]3CC[C@]12C)C(C)C | 15.9 µM
12 | C=C(C)[C@@H]1CC[C@]2(C(=O)O)CC[C@]3(C)[C@H](CC[C@@H]4[C@@]5(C)CC[C@H](O)C(C)(C)[C@@H]5CC[C@]43C)[C@@H]12 [BETULINIC ACID] | 42.5 µM
13 | O=c1cc(-c2ccc(O)cc2O)oc2cc(O)cc(O)c12 [NORARTOCARPETIN] | 6.1 µg/mL
14 | C=C(C)C(O)Cc1c(O)cc(O)c2c(=O)c(CC=C(C)C)c(-c3ccc(O)cc3O)oc12 (centres undefined) | 6.6 µg/mL
15 | CC(C)[C@@H](C)/C=C/[C@@H](C)[C@H]1CC[C@@H]2[C@]1(C)CC[C@H]1[C@]23C=C[C@]2(C[C@@H](O)CC[C@]12C)OO3 [ERGOSTEROL PEROXIDE] | 28.7 µM
16 | C=C(C)C(=O)Cc1c(-c2ccc(O)cc2O)oc2c(CC=C(C)C)c(O)cc(O)c2c1=O | 4.3 µg/mL
17 | O=C1CC(c2ccc(O)cc2O)Oc2cc(O)ccc21 (centres undefined) | 10.3 µg/mL
18 | CC(C)=CCC/C(C)=C/Cc1c(O)cc2oc(-c3ccc(O)cc3)cc(=O)c2c1O | 4.1 µg/mL
19 | CC(C)=CCc1c(-c2ccc(O)cc2O)oc2cc3c(c(O)c2c1=O)CC(C(C)(C)O)O3 (centres undefined) | 2.2 µg/mL
20 | C=C(C)C(O)Cc1c(-c2ccc(O)cc2O)oc2c(CC=C(C)C)c(O)cc(O)c2c1=O (centres undefined) | 7.3 µg/mL
21 | CC[C@H](CC[C@@H](C)[C@H]1CC[C@H]2[C@@H]3C[C@H](O)C4=CC(=O)CC[C@]4(C)[C@H]3CC[C@]12C)C(C)C | 86.7 µM
22 | CC(C)=CCC1C(=O)c2c(O)cc3c(c2OC1c1ccc(O)cc1O)C=CC(C)(C)O3 (centres undefined) | 5.3 µg/mL
23 | CC(C)=CCc1c(-c2ccc(O)cc2O)oc2c(CC=C(C)C)c(O)cc(O)c2c1=O [KUWANON C] | 9.6 µg/mL
24 | O=C1CC(c2ccc(O)cc2O)Oc2cc(O)cc(O)c21 (centres undefined) [STEPPOGENIN] | 12.1 µg/mL
25 | CC(C)=CCc1c(-c2ccc(O)cc2O)oc2cc3c(c(O)c2c1=O)C=CC(C)(C)O3 [CUDRAFLAVONE B] | 7.4 µg/mL

Other lines, results leading:

Row | IC50 | Structure (SMILES)
26 | 5.2 µg/mL | CC(C)=CCC1C(=O)c2c(O)cc3c(c2OC1c1ccc(O)cc1O)C=CC(C)(CO)O3 (centres undefined)
27 | 3.5 µg/mL | CC(C)=CCc1c(O)ccc(C(=O)/C=C/c2ccc(O)cc2)c1O [ISOBAVACHALCONE]
28 | 77.4 µM | CC[C@H](CC[C@@H](C)[C@H]1CC[C@H]2[C@@H]3CC=C4C[C@@H](O[C@@H]5O[C@H](CO)[C@@H](O)[C@H](O)[C@H]5O)CC[C@]4(C)[C@H]3CC[C@]12C)C(C)C [SITOGLUSIDE]
29 | 12.8 µg/mL | CC(C)=CCc1c(O)ccc(C(=O)[C@H]2[C@@H](c3cc(O)cc4oc(-c5ccc(O)cc5O)cc34)C=C(C)C[C@@H]2c2ccc(O)cc2O)c1O
30 | 54.1 µM | COc1cc(/C=C/C(=O)O[C@H]2CC[C@]3(C)[C@H]4CC=C5[C@@H]6CC(C)(C)CC[C@]6(C(=O)O)CC[C@@]5(C)[C@]4(C)CC[C@H]3C2(C)C)ccc1O

tested on: RAW264.7; assay: Antiinflammatory activity in mouse RAW264.7 cells assessed as inhibition of LPS-induced nitric oxide production after 24 hrs by Griess reagent based assay; assay type: functional, cell-based; conditions: RAW264.7, 24 h

Row | Structure (SMILES) | IC50 [µg/mL]
31 | CC1=CCc2ccc3cc(-c4cc(O)cc(O)c4)oc3c2OC1 | 19.8 (≈ 64.2 µM)
32 | COc1cc(O)cc(-c2cc3ccc(O)cc3o2)c1C/C=C(\C)CCC=C(C)C | 5.3 (≈ 13.5 µM)
33 | COc1c(-c2ccc(O)c(O)c2)oc2cc(O)cc(O)c2c1=O [3-O-METHYLQUERCETIN] | 3.5 (≈ 11.1 µM)
34 | COc1cc(O)cc(-c2cc3cc(OC)c(O)cc3o2)c1 | 7.5 (≈ 26.2 µM)
35 | COc1cc(O)cc(-c2cc3cc(O)c(OC)cc3o2)c1 | 7.9 (≈ 27.6 µM)
36 | CC1(C)C=Cc2c(cc(O)cc2-c2cc3ccc(O)cc3o2)O1 | 18.5 (≈ 60 µM)

The next lines start with the values.

Row | IC50 [µg/mL] | Structure (SMILES)
37 | 24.1 (≈ 106 µM) | Oc1ccc(/C=C/c2cc(O)cc(O)c2)cc1 [RESVERATROL]
38 | 3.5 (≈ 8.28 µM) | C=C(C)[C@H](O)CC/C(C)=C/Cc1c(O)cc2oc(-c3ccc(O)cc3)cc(=O)c2c1O
39 | 8.5 (≈ 12.5 µM) | CC(C)=CCc1c(O)ccc(C(=O)/C=C/c2ccc(O)c([C@H]3C=C(C)CC(c4ccc(O)cc4O)[C@H]3C(=O)c3ccc(O)cc3O)c2O)c1O (some centres undefined)
40 | 10.2 (≈ 37.5 µM) | O=C(/C=C/c1ccc(O)cc1O)c1ccc(O)cc1O
41 | 3.4 (≈ 13.3 µM) | O=C(/C=C/c1ccc(O)cc1)c1ccc(O)cc1O [ISOLIQUIRITIGENIN]

target: T2, Prostaglandin G/H synthase 2 (Homo sapiens) (UniProt P35354); assay: Inhibition of human COX2 at 10 uM using arachidonic acid as substrate measured for 300 secs intervals from 3 to 10 secs in presence of hematin by fluorescence assay relative to control; conditions: not given
T2 sequence (whole entry): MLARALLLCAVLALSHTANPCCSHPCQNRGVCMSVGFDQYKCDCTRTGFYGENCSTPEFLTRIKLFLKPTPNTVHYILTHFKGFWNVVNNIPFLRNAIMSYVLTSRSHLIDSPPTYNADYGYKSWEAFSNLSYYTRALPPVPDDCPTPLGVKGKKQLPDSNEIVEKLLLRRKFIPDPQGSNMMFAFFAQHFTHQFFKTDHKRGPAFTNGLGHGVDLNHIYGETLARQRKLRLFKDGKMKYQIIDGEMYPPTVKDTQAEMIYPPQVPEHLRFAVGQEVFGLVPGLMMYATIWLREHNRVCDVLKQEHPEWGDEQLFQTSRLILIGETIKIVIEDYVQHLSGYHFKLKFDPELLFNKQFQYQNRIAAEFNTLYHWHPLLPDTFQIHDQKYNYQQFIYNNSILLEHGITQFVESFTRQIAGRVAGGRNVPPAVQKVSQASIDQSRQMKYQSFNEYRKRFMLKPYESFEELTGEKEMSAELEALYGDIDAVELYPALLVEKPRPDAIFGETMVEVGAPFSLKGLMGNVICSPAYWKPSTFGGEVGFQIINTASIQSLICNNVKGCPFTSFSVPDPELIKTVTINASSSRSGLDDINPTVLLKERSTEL

Row | Structure (SMILES) | inhibition [%]
42 | COc1cc(OC(C)=O)c2c(c1)O[C@H](OC(C)=O)[C@]1(Cc3cc4c(cc31)COC4)C2=O | 89
43 | COc1cc(O)cc2c1C(=O)C(Cc1ccc(O)cc1)CO2 (centres undefined) | 73.8
44 | COc1cc(O)c2c(c1)OCC1(Cc3c1cc(OC)c(OC)c3O)C2=O (centres undefined) | 101
45 | COc1ccc(CC2COc3cc(O)cc(O)c3C2=O)cc1 (centres undefined) | 20.9
46 | COc1cc(OC(C)=O)c2c(c1)O[C@H](OC(C)=O)[C@@]1(Cc3cc4c(cc31)COC4)C2=O | 20.9

Second part, the molecule after the results:

Row | inhibition [%] | Structure (SMILES)
47 | 13.3 | O=C1c2c(O)cc(O)cc2OCC1Cc1ccc(O)cc1 (centres undefined)
48 | 62.2 | COc1cc(OC)c(C(=O)/C=C/c2ccc(O)cc2)c(OC)c1
49 | 71.4 | COc1ccc(CC2(O)COc3cc(O)cc(O)c3C2=O)cc1 (centres undefined)
50 | 54.4 | COc1cc(OC)c(C(=O)CCc2ccc(O)cc2)c(OC)c1

target: T3, Prostaglandin G/H synthase 2 (Homo sapiens, UniProt P35354); assay: Inhibition of COX2 (unknown origin); conditions: not given
T3 sequence (P35354 whole entry): T2 sequence (whole entry)

Row | Structure (SMILES) | IC50 [µM]
51 | COOC[C@@]1(C)CC[C@]2(C)CC[C@]3(C)[C@@H]4CC(=O)c5cc(OC)c(O)cc5[C@]4(C)CC[C@@]3(C)C2C1 (some centres undefined) | 660
52 | C=C(C)[C@@H]1CC[C@]2(C)CC[C@]3(C)[C@H](CCC4[C@@]5(C)[C@H](O)C[C@H](O)C(C)(C)[C@@H]5CC[C@]43C)[C@@H]12 (some centres undefined) | 450
53 | O=C(O[C@@H]1[C@@H](c2c(O)cc(O)c3c2O[C@H](c2cc(O)c(O)c(O)c2)[C@H](OC(=O)c2cc(O)c(O)c(O)c2)C3)c2c(O)cc(O)c([C@H]3c4c(O)cc(O)cc4O[C@H](c4cc(O)c(O)c(O)c4)[C@@H]3OC(=O)c3cc(O)c(O)c(O)c3)c2O[C@@H]1c1cc(O)c(O)c(O)c1)c1cc(O)c(O)c(O)c1 | 4.5
54 | C=C(C)[C@@H]1CC[C@]2(C)CC[C@]3(C)[C@H](CCC4[C@@]5(C)[C@H](O)C[C@H](OC(C)=O)C(C)(C)[C@@H]5CC[C@]43C)[C@@H]12 (some centres undefined) | 540
